From US10493070B2 (priority 2016, dated 2019)
Like-named read-outs stand apart in the source and are kept apart here.

Tested on: recombinant NL4-3 virus (NLRluc, Renilla luciferase in nef, Gag P373S)
Assay: HIV cell culture assay (Renilla luciferase reporter virus in MT-2 cells)
Type: cell-based
Conditions: Renilla
Protocol: MT-2 cells and 293T cells were obtained from the NIH AIDS Research and Reference Reagent Program. MT-2 cells were propagated in RPMI 1640 media supplemented with 10% heat inactivated fetal bovine serum, […]. The 293T cells were propagated in DMEM media supplemented with 10% heat inactivated fetal bovine serum (FBS), 100 units/ml penicillin G and 100 μg/ml streptomycin. The proviral DNA clone of NL4-3 was obtained from the NIH AIDS Research and Reference Reagent Program. A recombinant NL4-3 virus, in which a section of the nef gene from NL4-3 was replaced with the Renilla luciferase gene, was used as a reference virus. In addition, residue Gag P373 was converted to P373S. Briefly, the recombinant virus was prepared by transfection of the altered proviral clone of NL4-3. Transfections were performed in 293T cells using LipofectAMINE PLUS from Invitrogen (Carlsbad, Calif.), according to manufacturer's instruction. The virus was titered in MT-2 cells using luciferase enzyme activity as a marker. Luciferase was quantitated using the Dual Luciferase kit from Promega (Madison, Wis.), with modifications to the manufacturer's protocol. The diluted Passive Lysis solution was pre-mixed with the re-suspended Luciferase Assay Reagent and the re-suspended Stop & Glo Substrate (2:1:1 ratio). Fifty (50) μL of the mixture was added to each aspirated well on assay plates and luciferase activity was measured immediately on a Wallac TriLux (Perkin-Elmer). Antiviral activities of inhibitors toward the recombinant virus were quantified by measuring luciferase activity in cells infected for 4-5 days with NLRluc recombinants in the presence serial dilutions of the inhibitor. Table 16 is the key for the data in Table 17.

[1] = NL43, read-out: 10% FBS EC50, 10% FBS, class symbols A/B/C
[2] = NL43, read-out: 10% FBS EC50, 10% FBS, numeric values

| SMILES | EC50 [1] [nM] | EC50 [2] [nM] |
| --- | --- | --- |
| CC(C)(C)OC(=O)NCc1ccc(C(=O)N2CC=C3C(C)(C)C(c4ccc(C(=O)O)cc4)=CC[C@]3(C)C2)cc1 [Example 33] | > 3000 |  |
| CC1(C)C(c2ccc(C(=O)O)cc2)=CC[C@]2(C)CN(c3cc(-c4nnnn4CCN4CCS(=O)(=O)CC4)cc([N+](=O)[O-])c3)CC=C12 [Example B2, (S)-4-(2-(3-(1-(2-(1,1-dioxidothiomorpholino)ethyl)-1H-tetrazol-5-yl)-5-nitrophenyl)-5,5,8a-trimethyl-1,2,3,5,8,8a-hexahydroisoquinolin-6-yl)benzoic acid] |  | 760 |
| CC1(C)C(c2ccc(C(=O)O)cc2)=CC[C@]2(C)CN(C(=O)c3cc(F)ccc3F)CC=C12 [Example 6] | > 3000 |  |
| CC1(C)C(c2ccc(C(=O)O)cc2)=CC[C@]2(C)CN(C(=O)C3(c4ccccc4)CCN(S(=O)(=O)CCCCl)CC3)CC=C12 [Example A197] |  | 147 |
| CN(C)c1cccc(C(=O)N2CC=C3C(C)(C)C(c4ccc(C(=O)O)cc4)=CC[C@]3(C)C2)c1 [Example 24] | > 3000 |  |
| CC(=O)NCCn1c(-c2ccccc2C(=O)N2CC=C3C(C)(C)C(c4ccc(C(=O)O)cc4)=CC[C@]3(C)C2)nc2cc(C(=O)O)ccc21 [Example A294] | > 3000 |  |
| CC(C)C[C@@H](NC(=O)OC(C)(C)C)C(=O)N1CCC(C(=O)N2CC[C@H]3C(C)(C)[C@@H](c4ccc(C(=O)O)cc4)CC[C@]3(C)C2)(c2ccccc2)CC1 [Example 86] | < 500 |  |
| Cc1cc2nc(-c3ccccc3C(=O)N3CC=C4C(C)(C)C(c5ccc(C(=O)O)cc5)=CC[C@]4(C)C3)[nH]c2cc1Cl [Example A254] | < 500 |  |
| COc1ccc(OC)c2[nH]c(-c3ccccc3C(=O)N3CC=C4C(C)(C)C(c5ccc(C(=O)O)cc5)=CC[C@]4(C)C3)nc12 [Example A299] | < 500 |  |
| CC1(C)C(c2ccc(C(=O)O)cc2)=CC[C@]2(C)CN(C(=O)c3ccccc3-c3nc4ccccc4n3CC34CCN(CC3)CC4)CC=C12 [Example A275] |  | 1700 |
| CC1(C)C(c2ccc(C(=O)O)cc2)=CC[C@]2(C)CN(C(=O)c3ccccc3N3CCN(CCN4CCS(=O)(=O)CC4)CC3)CC=C12 [Example 44] |  | 520 |
| CC1(C)C(c2ccc(C(=O)O)cc2)=CC[C@]2(C)CN(C(=O)C3(c4ccccc4)CCN(CCN4CCS(=O)(=O)CC4)CC3)CC=C12 [Example 96, (S)-4-(2-(1-(2-(1,1-dioxidothiomorpholino)ethyl)-4-phenylpiperidine-4-carbonyl)-5,5,8a-trimethyl-1,2,3,5,8,8a-hexahydroisoquinolin-6-yl)benzoic acid] |  | 1350 |
| Cc1ccc2nc(-c3ccccc3C(=O)N3CC=C4C(C)(C)C(c5ccc(C(=O)O)cc5)=CC[C@]4(C)C3)[nH]c2c1C [Example 98] | < 500 |  |
| CC1(C)C(c2ccc(C(=O)O)cc2)=CC[C@]2(C)CN(C(=O)c3cccc(C(=O)NCCCN4CCS(=O)(=O)CC4)n3)CC=C12 [Example 70] | > 3000 |  |
| CC1(C)C(c2ccc(C(=O)O)cc2)=CC[C@]2(C)CN(c3cc(F)cc(-c4nn[nH]n4)c3)CC=C12 [Example B7] | > 3000 |  |
| CC(C)(C)OC(=O)N1CCN(c2ccccc2C(=O)N2CCC3C(C)(C)C(c4ccc(C(=O)O)cc4)CC[C@]3(C)C2)CC1 (stereo partly drawn) [Example 83, 4-((8aS)-2-(2-(4-(tert-butoxycarbonyl)piperazin-1-yl)benzoyl)-5,5,8a-trimethyldecahydroisoquinolin-6-yl)benzoic acid] | < 500 |  |
| Cc1nc2cc(C(=O)N3CC=C4C(C)(C)C(c5ccc(C(=O)O)cc5)=CC[C@]4(C)C3)ccc2[nH]1 [Example 41] | > 3000 |  |
| COc1ccc2nc(-c3ccccc3C(=O)N3CC=C4C(C)(C)C(c5ccc(C(=O)O)cc5)=CC[C@]4(C)C3)oc2c1 [Example A334] | < 500 |  |
| CC1(C)C(c2ccc(C(=O)O)cc2)=CC[C@]2(C)CN(c3cc(N)cc(-c4nnn(CCN5CCS(=O)(=O)CC5)n4)c3)CC=C12 [Example B3, (S)-4-(2-(3-amino-5-(2-(2-(1,1-dioxidothiomorpholino)ethyl)-2H-tetrazol-5-yl)phenyl)-5,5,8a-trimethyl-1,2,3,5,8,8a-hexahydroisoquinolin-6-yl)benzoic acid] | > 3000 |  |

| SMILES | EC50 [1] [nM] | EC50 [2] [nM] |
| --- | --- | --- |
| CC1(C)C(c2ccc(C(=O)O)cc2)=CC[C@]2(C)CN(c3nc4ccccc4s3)CC=C12 [Example 80] |  | 179 |
| CC(C)(C)OC(=O)N[C@H]1CC[C@H](C(=O)N2CC=C3C(C)(C)C(c4ccc(C(=O)O)cc4)=CC[C@]3(C)C2)CC1 [Example 15] | > 3000 |  |
| CC1(C)C(c2ccc(C(=O)O)cc2)=CC[C@]2(C)CN(C(=O)c3ccccc3-c3nc4cc(F)c(F)cc4o3)CC=C12 [Example A338] | 500 to 3000 |  |
| CC1(C)C(c2ccc(C(=O)O)cc2)=CC[C@]2(C)CN(C(=O)c3ccccc3-c3nc4cc([N+](=O)[O-])ccc4[nH]3)CC=C12 [Example A273] |  | 63 |
| Cc1ccc2oc(-c3ccccc3C(=O)N3CC=C4C(C)(C)C(c5ccc(C(=O)O)cc5)=CC[C@]4(C)C3)nc2c1 [Example A309] |  | 171 |
| CC1(C)C(c2ccc(C(=O)O)cc2)=CC[C@]2(C)CN(C(=O)c3ccccc3C(=O)N3CCS(=O)(=O)CC3)CC=C12 [Example 67] | > 3000 |  |
| CC(C)[C@H]1CC[C@H](C)C[C@@H]1OC(=O)c1ccccc1C(=O)N1CC=C2C(C)(C)C(c3ccc(C(=O)O)cc3)=CC[C@]2(C)C1 [Example A36] |  | 380 |
| CC1(C)C(c2ccc(C(=O)O)cc2)=CC[C@]2(C)CN(c3ncnc(N4CC=C5C(C)(C)C(c6ccc(C(=O)O)cc6)=CC[C@]5(C)C4)n3)CC=C12 [Example 75] |  | 190 |
| CC1(C)C(c2ccc(C(=O)O)cc2)=CC[C@]2(C)CN(c3cccc(Br)n3)CC=C12 [Example 76] |  | 980 |
| CC1(C)C(c2ccc(C(=O)O)cc2)=CC[C@]2(C)CN(c3ccc(C(=O)O)cc3)CC=C12 [Example B10, (S)-4,4′-(5,5,8a-trimethyl-3,5,8,8a-tetrahydroisoquinoline-2,6(1H)-diyl)dibenzoic acid] | > 3000 |  |
| COc1cccc2oc(-c3ccccc3C(=O)N3CC=C4C(C)(C)C(c5ccc(C(=O)O)cc5)=CC[C@]4(C)C3)nc12 [Example A311] |  | 218 |
| CC1(C)C(c2ccc(C(=O)O)cc2)=CC[C@]2(C)CN(c3nc(C(=O)O)cs3)CC=C12 [Example B16] |  | 1480 |
| COc1ccc2oc(-c3ccccc3C(=O)N3CC=C4C(C)(C)C(c5ccc(C(=O)O)cc5)=CC[C@]4(C)C3)nc2c1 [Example A320] |  | 183 |
| CC1(C)C(c2ccc(C(=O)O)cc2)=CC[C@]2(C)CN(C(=O)c3cccc(C(=O)N4CC=C5C(C)(C)C(c6ccc(C(=O)O)cc6)=CC[C@]5(C)C4)c3)CC=C12 [Example 58, 4,4′-((8aS,8a′S)-isophthaloylbis(5,5,8a-trimethyl-1,2,3,5,8,8a-hexahydroisoquinoline-2,6-diyl))dibenzoic acid] | < 500 |  |
| CC1(C)C(c2ccc(C(=O)O)cc2)=CC[C@]2(C)CN(C(=O)c3ccccc3-n3cccn3)CC=C12 [Example A58] |  | 1850 |
| CC1(C)C(c2ccc(C(=O)O)cc2)=CC[C@]2(C)CN(C(=O)c3ccccc3C(=O)O)CC=C12 [Example 14] | > 3000 |  |
| CC1(C)C(c2ccc(C(=O)O)cc2)=CC[C@]2(C)CN(c3ncccn3)CC=C12 [Example B11] | > 3000 |  |
| CC1(C)C(c2ccc(C(=O)O)cc2)=CC[C@]2(C)CN(C(=O)c3ccccc3-c3nc4ccc(F)c(F)c4o3)CC=C12 [Example A314] | 500 to 3000 |  |
| CN(C)CCC(=O)N1CC=C2C(C)(C)C(c3ccc(C(=O)O)cc3)=CC[C@]2(C)C1 [Example 34] | > 3000 |  |
